According to ChEMBL document CHEMBL3603805, “Novel metal chelating molecules with anticancer activity. Striking effect of the imidazole substitution of the histidine-pyridine-histidine system” (Bioorg Med Chem, 2015):
The source made the active and inactive calls. The calls are words filed in the database; no cut-off is given here.

Legend:
ASPC1 = test: Cytotoxicity against human AsPC1 cells at 10 uM after 24 hrs by MTT assay; assay type: functional, cell-based
U-251 = test: Cytotoxicity against human U251 cells at 10 uM after 24 hrs by MTT assay; assay type: functional, cell-based
[1] = Stability of the compound under physiological condition; assay type: physicochemical
Escherichia coli = test: Induction of DNA cleavage in Escherichia coli supercoiled pUC19 DNA assessed as formation of nicked form II DNA using FeSO4 at 30 uM after 1.5 hrs by agarose-gel electrophoresis
U-87MG ATCC = test: Cytotoxicity against human U87 cells at 10 uM after 24 hrs by MTT assay; assay type: functional, cell-based

Stability [1] | Activity (Escherichia coli) | SMILES | Activity (ASPC1) | Activity (U-251) | Activity (U-87MG ATCC)
Stable | Active | COC(=O)[C@H](Cc1c[nH]cn1)NCc1cc(N(C)C)cc(CN[C@@H](Cc2cn(C(c3ccccc3)(c3ccccc3)c3ccccc3)cn2)C(=O)OC)n1 | Active | Active | Active
 | Active | COC(=O)[C@H](Cc1c[nH]cn1)NCc1cc(N(C)C)cc(CN[C@@H](Cc2cn(C)cn2)C(=O)OC)n1 | inactive | inactive | inactive
 | Active | COC(=O)[C@H](Cc1c[nH]cn1)NCc1cc(N(C)C)cc(CN[C@@H](Cc2c[nH]cn2)C(=O)OC)n1 | inactive | inactive | inactive
Stable | Active | COC(=O)[C@H](Cc1cn(C(c2ccccc2)(c2ccccc2)c2ccccc2)cn1)NCc1cc(N(C)C)cc(CN[C@@H](Cc2cn(C(c3ccccc3)(c3ccccc3)c3ccccc3)cn2)C(=O)OC)n1 | Active | Active | Active
 | Active | COC(=O)[C@H](Cc1cn(C)cn1)NCc1cc(N(C)C)cc(CN[C@@H](Cc2cn(C)cn2)C(=O)OC)n1 | inactive | inactive | inactive
 | Active | COC(=O)[C@H](Cc1cn(Cc2ccccc2)cn1)NCc1cc(N(C)C)cc(CN[C@@H](Cc2cn(Cc3ccccc3)cn2)C(=O)OC)n1 | inactive | inactive | inactive
